Measurements: ChEMBL document CHEMBL1201862, “PubChem BioAssay data set” (2004)
Active and inactive are the calls of the source.

Assays:
[1] = target: Cyclin-dependent kinase 7 (Homo sapiens, UniProt P50613); assay type: functional;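 further: value comes from a kinome-wide kinase profiling panel in which CDK7 is one member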
[2] = target: Cell division cycle 7-related protein kinase (Homo sapiens, UniProt O00311); assay type: functional;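 further: value obtained from a kinome-wide kinase panel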
[3] = target: Cyclin-dependent kinase 9 (Homo sapiens, UniProt P50750); assay type: functional;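 further: value from the CDK9 entry of a kinome-spanning kinase panel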
[4] = cells; assay type: functional, cell-based
[5] = cells; assay type: functional, cell-based; remark: listed apart in the source
[6] = T. cruzi growth inhibition in host cells, dose response, cell-based, plate reader, dry powder, set 2 (AID 652275); assay type: functional
[7] = general mammalian cell viability loss – inhibitor set, cherry-pick, set 2, cytotoxicity control for miR-122 modulator project, dose response (AID 720697); assay type: functional, cell-based
[8] = activation of miR-122 Renilla sensor silencing – cell-based, Huh7 psiCHECK-miR122, Renilla luciferase, cherry-picked, dose response (AID 651956); assay type: functional;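 further: huh7 hepatoma cells stably carrying a psiCHECK-2 miR-122 sensor plasmid; renilla luciferase signal reporting endogenous miR-122 activity after 48 h compound exposure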
[9] = target: Peroxisome proliferator-activated receptor gamma/Nuclear receptor coactivator 2 (Homo sapiens, UniProt P37231); experiment: (§1) TR-FRET dose response biochemical High Throughput Screening assay for agonists of the steroid receptor coactivator 2 (SRC-2) recruitment by the peroxisome proliferator-activated receptor gamma (PPAR gamma): non-selective agonists. [Related pubchem assays: 1297, 1032 ]; assay type: functional
[10] = target: Peroxisome proliferator-activated receptor gamma/Nuclear receptor coactivator 3 (Homo sapiens, UniProt P37231); experiment: as §1, with “3 (SRC-3)” for “2 (SRC-2)”, “1301 (Confirmation screen.), 1048 (Primary screen.)]” for “1297, 1032 ]”; assay type: functional
[11] = target: T1, Protein skinhead-1 (Caenorhabditis elegans, UniProt P34707); assay type: functional
T1 sequence (P34707 whole entry): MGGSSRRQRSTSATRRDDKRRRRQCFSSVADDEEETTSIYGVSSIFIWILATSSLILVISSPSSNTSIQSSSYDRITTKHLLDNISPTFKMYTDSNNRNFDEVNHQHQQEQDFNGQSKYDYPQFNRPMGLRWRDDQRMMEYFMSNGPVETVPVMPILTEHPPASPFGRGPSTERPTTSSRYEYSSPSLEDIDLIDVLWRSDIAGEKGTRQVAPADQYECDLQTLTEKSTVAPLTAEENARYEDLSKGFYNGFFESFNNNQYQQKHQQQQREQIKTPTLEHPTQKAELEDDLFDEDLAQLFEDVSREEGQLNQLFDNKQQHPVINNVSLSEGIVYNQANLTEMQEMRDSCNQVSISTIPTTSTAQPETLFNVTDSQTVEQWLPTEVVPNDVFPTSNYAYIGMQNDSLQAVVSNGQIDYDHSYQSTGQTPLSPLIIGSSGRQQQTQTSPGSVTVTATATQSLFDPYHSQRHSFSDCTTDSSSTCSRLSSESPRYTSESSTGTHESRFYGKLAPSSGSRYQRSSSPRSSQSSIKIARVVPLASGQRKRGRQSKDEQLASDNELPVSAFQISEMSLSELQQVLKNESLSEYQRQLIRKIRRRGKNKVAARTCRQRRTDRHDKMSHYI

[12] = target: Peroxisome proliferator-activated receptor gamma/Nuclear receptor coactivator 1 (Homo sapiens, UniProt P37231); experiment: as §1, with “1 (SRC-1)” for “2 (SRC-2)”, “assays (depositor defined):AID1300, AID1808, AID504735, AID631]” for “assays: 1297, 1032 ]”; assay type: protein assay
[13] = target: Beta-lactamase (Salmonella choleraesuis (strain SC-B67), UniProt Q5J463); experiment: Epi-absorbance-based counterscreen for selective VIM-2 inhibitors: dose response biochemical high throughput screening assay to identify inhibitors of TEM-1 serine-beta-lactamase.
[14] = target: FAD-linked sulfhydryl oxidase ALR (Homo sapiens, UniProt P55789); experiment: ALR-catalysed DTT oxidation blockers – biochemical, H2O2 detection, luminescence, cherry-pick, dose response (AID 493248)
[15] = target: T2, Beta-lactamase (Pseudomonas aeruginosa, UniProt Q79MP6); experiment: inhibition of IMP-1 beta-lactamase activity – biochemical, epi-absorbance, selectivity assay for VIM-2 inhibitor project, dose response (AID 1920)
[16] = target: T2, Beta-lactamase; experiment: […] counterscreen for selective VIM-2 inhibitors: dose response biochemical high throughput screening assay to identify inhibitors of IMP-1 metallo-beta-lactamase.
[17] = target: T3, Sentrin-specific protease 6 (Homo sapiens, UniProt Q9GZR1); experiment: SAR Analysis of small molecule inhibitors of Sentrin-specific protease 6 (SENP6) using a Luminescent assay. [Related pubchem assays (depositor defined):AID2582, AID2599]; assay type: functional
T3 sequence (Q9GZR1 whole entry): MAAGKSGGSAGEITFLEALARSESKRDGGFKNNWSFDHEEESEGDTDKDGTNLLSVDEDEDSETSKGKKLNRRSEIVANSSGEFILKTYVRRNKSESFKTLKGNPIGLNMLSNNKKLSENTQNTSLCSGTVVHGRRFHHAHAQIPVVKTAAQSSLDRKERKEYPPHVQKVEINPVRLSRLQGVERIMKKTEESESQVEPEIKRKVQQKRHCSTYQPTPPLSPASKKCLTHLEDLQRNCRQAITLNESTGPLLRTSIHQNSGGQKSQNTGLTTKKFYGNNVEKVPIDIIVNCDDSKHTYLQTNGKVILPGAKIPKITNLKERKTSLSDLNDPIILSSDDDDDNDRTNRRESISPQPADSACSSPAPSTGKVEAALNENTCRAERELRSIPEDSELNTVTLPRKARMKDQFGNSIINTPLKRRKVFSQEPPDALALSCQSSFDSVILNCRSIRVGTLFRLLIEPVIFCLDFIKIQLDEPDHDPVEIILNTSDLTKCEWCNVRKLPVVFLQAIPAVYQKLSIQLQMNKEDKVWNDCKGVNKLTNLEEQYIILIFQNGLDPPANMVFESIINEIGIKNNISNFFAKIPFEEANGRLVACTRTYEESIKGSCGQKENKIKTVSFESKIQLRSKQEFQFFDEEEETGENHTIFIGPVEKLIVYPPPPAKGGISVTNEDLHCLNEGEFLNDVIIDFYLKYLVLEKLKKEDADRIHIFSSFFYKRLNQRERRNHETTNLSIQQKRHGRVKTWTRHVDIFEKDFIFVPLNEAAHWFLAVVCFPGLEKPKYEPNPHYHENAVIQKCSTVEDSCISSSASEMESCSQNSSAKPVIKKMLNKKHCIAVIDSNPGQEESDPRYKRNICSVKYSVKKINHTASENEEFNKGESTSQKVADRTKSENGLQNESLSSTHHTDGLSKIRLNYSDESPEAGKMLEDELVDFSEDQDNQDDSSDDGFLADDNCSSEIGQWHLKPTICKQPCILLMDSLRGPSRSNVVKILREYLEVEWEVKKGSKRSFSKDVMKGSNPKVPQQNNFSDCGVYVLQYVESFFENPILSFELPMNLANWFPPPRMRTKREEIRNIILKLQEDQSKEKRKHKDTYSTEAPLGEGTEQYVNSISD

[18] = target: T4, Sentrin-specific protease 8 (Homo sapiens, UniProt Q96LD8); experiment: inhibition of human SENP8 cleavage activity – biochemical, luminescence, SAR follow-up (AID 504501); assay type: functional
T4 sequence (Q96LD8 whole entry): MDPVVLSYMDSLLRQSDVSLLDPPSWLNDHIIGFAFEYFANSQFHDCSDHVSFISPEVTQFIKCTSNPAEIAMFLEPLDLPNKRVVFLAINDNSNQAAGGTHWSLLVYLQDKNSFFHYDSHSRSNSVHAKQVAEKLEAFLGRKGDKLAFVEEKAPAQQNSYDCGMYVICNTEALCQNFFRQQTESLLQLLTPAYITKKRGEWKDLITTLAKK

[19] = target: T5, Caspase-3 (Homo sapiens, UniProt P42574); experiment: SAR Analysis of small molecule inhibitors of Sentrin-specific proteases (SENPs) using a Caspase-3 Selectivity assay. [Related pubchem assays (depositor defined):AID2540, AID2599, AID434973, AID489001]; assay type: functional
T5 sequence (P42574 whole entry): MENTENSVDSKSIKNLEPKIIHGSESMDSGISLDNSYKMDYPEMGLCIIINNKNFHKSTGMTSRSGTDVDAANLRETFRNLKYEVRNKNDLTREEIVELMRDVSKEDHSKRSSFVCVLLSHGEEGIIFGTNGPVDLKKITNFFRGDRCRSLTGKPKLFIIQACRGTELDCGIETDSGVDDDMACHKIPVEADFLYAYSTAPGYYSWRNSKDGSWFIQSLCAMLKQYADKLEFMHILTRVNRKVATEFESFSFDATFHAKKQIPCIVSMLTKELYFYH

[20] = target: T4, Sentrin-specific protease 8; assay type: functional
[21] = target: Glucose-6-phosphate 1-dehydrogenase (Homo sapiens, UniProt P11413); experiment: inhibition of Homo sapiens G6PD, dose series – biochemical, fluorescence, selectivity assay for P. falciparum G6PD inhibitor project, dose response (AID 504792); assay type: functional
[22] = target: T4, Sentrin-specific protease 8; assay type: functional; remark: listed apart in the source

T2 sequence (Q79MP6 whole entry): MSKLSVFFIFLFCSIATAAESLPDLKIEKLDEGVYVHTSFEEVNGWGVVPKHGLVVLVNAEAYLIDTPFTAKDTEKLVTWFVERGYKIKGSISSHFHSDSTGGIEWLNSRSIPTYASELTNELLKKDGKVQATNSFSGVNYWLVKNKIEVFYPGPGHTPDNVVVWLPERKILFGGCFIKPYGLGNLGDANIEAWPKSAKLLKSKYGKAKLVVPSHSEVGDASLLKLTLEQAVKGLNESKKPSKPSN
Sequence of Cyclin-dependent kinase 7 (P50613 whole entry): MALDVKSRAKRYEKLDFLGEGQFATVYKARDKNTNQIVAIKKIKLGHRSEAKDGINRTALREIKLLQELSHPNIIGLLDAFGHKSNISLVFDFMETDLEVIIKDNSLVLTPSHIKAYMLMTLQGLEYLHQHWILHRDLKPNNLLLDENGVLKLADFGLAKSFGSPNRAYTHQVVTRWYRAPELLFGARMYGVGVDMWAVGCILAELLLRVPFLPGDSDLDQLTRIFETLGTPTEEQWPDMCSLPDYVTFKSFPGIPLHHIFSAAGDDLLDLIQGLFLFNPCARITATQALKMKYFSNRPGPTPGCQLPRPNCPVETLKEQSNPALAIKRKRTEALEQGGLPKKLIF
Sequence of Glucose-6-phosphate 1-dehydrogenase (P11413 whole entry): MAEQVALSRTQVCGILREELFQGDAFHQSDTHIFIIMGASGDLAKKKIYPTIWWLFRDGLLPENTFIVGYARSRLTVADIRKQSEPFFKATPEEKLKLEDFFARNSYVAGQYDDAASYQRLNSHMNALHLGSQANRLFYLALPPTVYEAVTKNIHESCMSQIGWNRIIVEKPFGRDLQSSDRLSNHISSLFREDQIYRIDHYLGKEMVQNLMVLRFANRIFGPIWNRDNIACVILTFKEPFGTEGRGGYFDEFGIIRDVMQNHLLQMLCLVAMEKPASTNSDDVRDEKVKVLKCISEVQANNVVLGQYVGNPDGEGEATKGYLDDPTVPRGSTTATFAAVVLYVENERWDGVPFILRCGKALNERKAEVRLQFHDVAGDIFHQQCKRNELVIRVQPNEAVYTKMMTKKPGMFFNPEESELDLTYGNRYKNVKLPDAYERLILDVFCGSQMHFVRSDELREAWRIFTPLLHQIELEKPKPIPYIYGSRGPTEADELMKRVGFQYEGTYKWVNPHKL
Sequence of Cyclin-dependent kinase 9 (P50750 whole entry): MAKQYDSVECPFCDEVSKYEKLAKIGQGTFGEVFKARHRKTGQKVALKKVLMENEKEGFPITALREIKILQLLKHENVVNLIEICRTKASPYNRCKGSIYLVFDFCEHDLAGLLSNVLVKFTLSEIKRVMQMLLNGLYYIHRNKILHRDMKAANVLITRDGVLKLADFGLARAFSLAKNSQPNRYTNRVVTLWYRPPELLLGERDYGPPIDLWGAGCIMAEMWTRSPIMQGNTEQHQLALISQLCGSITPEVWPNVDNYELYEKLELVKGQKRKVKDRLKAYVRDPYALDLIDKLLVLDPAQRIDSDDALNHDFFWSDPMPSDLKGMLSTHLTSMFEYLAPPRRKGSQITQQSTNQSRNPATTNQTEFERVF
Sequence of Cell division cycle 7-related protein kinase (O00311 whole entry): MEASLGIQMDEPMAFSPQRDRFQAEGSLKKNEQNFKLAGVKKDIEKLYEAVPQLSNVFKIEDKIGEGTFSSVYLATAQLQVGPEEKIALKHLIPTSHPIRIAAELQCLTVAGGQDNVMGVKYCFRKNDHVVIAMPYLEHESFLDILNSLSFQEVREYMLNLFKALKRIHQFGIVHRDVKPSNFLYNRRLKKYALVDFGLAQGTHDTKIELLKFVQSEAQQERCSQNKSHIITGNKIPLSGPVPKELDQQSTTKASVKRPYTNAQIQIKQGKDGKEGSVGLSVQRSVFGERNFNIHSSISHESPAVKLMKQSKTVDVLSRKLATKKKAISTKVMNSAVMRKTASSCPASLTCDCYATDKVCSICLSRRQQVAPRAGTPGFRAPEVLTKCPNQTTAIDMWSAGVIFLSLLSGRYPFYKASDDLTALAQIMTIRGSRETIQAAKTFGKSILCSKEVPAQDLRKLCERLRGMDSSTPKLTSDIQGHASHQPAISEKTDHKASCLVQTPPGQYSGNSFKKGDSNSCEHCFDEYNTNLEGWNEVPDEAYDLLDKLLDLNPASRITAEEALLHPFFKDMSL
Sequence of Peroxisome proliferator-activated receptor gamma/Nuclear receptor coactivator 3 (P37231 whole entry): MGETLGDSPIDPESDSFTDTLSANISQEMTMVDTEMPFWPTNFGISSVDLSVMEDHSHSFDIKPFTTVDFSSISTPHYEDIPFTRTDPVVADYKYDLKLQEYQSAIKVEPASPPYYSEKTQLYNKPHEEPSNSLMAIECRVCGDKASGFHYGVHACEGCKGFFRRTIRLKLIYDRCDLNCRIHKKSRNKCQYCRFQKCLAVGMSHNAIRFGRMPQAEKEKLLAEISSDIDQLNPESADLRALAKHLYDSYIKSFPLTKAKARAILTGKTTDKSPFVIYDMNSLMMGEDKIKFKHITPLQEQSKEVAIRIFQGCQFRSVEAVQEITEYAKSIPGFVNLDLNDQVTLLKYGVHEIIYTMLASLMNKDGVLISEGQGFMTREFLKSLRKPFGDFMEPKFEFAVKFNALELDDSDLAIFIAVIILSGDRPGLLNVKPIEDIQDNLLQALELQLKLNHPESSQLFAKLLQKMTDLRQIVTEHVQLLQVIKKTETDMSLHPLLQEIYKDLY
Sequence of Peroxisome proliferator-activated receptor gamma/Nuclear receptor coactivator 3 (Q9Y6Q9 whole entry, further chain): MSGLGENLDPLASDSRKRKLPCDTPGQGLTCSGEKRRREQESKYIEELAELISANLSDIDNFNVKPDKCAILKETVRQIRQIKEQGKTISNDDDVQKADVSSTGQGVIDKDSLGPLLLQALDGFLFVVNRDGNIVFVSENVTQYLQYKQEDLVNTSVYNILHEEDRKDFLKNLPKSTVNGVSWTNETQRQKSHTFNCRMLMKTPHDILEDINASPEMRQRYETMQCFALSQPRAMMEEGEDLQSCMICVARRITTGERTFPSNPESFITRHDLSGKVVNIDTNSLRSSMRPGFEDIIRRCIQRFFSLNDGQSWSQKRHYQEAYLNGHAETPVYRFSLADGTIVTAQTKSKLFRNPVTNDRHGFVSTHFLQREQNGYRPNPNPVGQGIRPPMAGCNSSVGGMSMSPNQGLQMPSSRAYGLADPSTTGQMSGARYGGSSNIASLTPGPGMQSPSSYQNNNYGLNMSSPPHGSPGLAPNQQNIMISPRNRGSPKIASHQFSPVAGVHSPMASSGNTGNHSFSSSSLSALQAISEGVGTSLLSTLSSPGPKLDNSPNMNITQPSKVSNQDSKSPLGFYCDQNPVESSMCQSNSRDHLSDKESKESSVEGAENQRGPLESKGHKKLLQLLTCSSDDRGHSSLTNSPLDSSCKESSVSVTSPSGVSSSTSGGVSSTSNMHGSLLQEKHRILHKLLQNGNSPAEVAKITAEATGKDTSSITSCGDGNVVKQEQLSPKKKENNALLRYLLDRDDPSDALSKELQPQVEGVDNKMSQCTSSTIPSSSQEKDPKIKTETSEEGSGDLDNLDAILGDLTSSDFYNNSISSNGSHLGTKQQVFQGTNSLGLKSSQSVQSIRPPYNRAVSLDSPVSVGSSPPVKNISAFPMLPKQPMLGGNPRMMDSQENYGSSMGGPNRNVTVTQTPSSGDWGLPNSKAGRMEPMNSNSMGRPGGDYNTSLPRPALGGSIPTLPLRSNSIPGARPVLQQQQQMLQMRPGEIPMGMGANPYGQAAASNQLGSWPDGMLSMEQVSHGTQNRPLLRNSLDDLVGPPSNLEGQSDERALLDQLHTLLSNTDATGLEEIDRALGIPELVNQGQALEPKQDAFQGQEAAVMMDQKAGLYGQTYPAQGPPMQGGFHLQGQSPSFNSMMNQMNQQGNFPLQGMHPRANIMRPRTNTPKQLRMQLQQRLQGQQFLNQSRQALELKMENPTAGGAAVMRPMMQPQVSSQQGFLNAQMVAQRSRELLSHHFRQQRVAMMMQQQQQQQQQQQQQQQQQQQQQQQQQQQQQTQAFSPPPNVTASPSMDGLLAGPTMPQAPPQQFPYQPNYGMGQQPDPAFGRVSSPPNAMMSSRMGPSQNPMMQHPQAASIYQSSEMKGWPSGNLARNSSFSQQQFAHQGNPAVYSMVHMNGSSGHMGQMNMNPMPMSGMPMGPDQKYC
Sequence of FAD-linked sulfhydryl oxidase ALR (P55789 whole entry): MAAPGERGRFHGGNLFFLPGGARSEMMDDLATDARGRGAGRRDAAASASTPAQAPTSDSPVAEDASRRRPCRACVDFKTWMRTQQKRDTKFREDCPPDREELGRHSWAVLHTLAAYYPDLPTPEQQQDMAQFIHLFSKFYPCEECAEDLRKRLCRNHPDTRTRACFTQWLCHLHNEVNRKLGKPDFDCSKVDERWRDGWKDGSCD
Sequence of Beta-lactamase (Salmonella choleraesuis (strain SC-B67), UniProt Q5J463) (Q5J463 whole entry): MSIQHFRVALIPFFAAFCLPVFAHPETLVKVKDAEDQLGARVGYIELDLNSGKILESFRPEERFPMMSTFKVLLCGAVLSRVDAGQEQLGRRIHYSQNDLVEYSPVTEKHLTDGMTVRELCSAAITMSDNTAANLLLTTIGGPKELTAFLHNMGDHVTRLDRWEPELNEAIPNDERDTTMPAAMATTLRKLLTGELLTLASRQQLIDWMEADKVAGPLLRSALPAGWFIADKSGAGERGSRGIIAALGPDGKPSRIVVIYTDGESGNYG

NC(=O)c1ccc(-c2ccncc2)cc1N1CCCC1
Ki [1]: > 2.51 µM (inactive) | Ki [2]: 0.126 µM (active) | Ki [3]: 1 µM (active)

O=C(NCCS(=O)(=O)NCCc1ccccc1)c1ccc2c(c1)OCO2
IC50 [4]: > 29.9 µM (inactive) | EC50 [5]: > 29.9 µM (inactive)

CN(C)C(=O)c1cccc(-c2ccc([C@H]3[C@H](CO)N4CCCCN(C(=O)C5CCCC5)C[C@@H]34)cc2)c1
AC50 [6]: 0.065 µM (active)

CN(C)C(=O)c1ccc(NC(=O)c2cc(-n3cnnc3)ccc2Cl)cc1
AC50 [7]: 1.88 µM (active) | AC50 [8]: 1.1 µM (active)

Cc1c(Cl)c(-c2nnc(S)n2-c2ccc(F)cc2)nn1C
EC50 [9]: > 79.4 µM (not active) | EC50 [10]: > 79.4 µM (not active) | IC50 [11]: > 100 µM (inactive) | EC50 [12]: > 79.4 µM (inactive) | IC50 [13]: > 59.6 µM (inactive) | AC50 [14]: 5.12 µM (active) | IC50 [15]: > 59.6 µM (inactive) | IC50 [16]: > 59.6 µM (inactive)

O=C(Nc1ccccc1F)c1ccc(OCc2ccccc2)cc1
IC50 [17]: > 99 µM (inactive) | IC50 [18]: > 99 µM (inactive) | IC50 [19]: 10.3 µM (active) | IC50 [4]: > 29.9 µM (inactive) | EC50 [5]: > 29.9 µM (inactive)

Cc1ccc(Nc2cc(C)c(O)c(C)c2)cc1
IC50 [20]: 13.9 µM (active) | IC50 [21]: 40 µM (inactive) | IC50 [22]: 23.7 µM (active)
